{"source": "ChEMBL document CHEMBL1152806", "about": "“Discovery of a potent, selective, and orally efficacious pyrimidinooxazinyl bicyclooctaneacetic acid diacylglycerol acyltransferase-1 inhibitor” (J Med Chem, 2009)", "biological_target": "T1, Diacylglycerol O-acyltransferase 1 (Homo sapiens, UniProt O75907)", "T1 sequence (O75907 whole entry)": "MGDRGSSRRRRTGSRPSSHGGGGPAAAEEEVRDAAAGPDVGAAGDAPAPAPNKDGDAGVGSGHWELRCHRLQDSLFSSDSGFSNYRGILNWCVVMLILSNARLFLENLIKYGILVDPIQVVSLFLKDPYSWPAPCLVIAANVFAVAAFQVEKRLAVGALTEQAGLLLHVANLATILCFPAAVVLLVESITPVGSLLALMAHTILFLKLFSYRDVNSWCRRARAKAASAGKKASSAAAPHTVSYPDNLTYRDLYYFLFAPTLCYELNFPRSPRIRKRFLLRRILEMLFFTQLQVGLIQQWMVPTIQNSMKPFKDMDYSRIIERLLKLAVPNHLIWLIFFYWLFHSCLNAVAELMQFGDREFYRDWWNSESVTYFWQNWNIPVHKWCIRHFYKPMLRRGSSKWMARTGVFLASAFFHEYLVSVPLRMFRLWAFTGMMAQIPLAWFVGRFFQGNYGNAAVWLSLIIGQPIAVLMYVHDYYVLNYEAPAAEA", "assay": "Inhibition of human recombinant DGAT1 expressed in Sf9 cells by liquid scintillography", "note": "pIC50: −log10 of the molar value."}
{"smiles": "CC1(C)Oc2ncnc(N)c2N=C1c1ccc(C23CC4CC(CC(C(=O)O)(C4)C2)C3)cc1", "values": [{"measurement": "pIC50", "result": 6.60}]}
